ChEMBL document CHEMBL3596106, “Structure-activity relationship study of E6 as a novel necroptosis inducer” (Bioorg Med Chem Lett, 2015)
The source made the active and inactive calls.

Each molecule was assayed on Jurkat (assay: Induction of necroptosis in human Jurkat T cells incubated for 24 hrs by ATP-based cell viability assay). Settings: Homo sapiens, Jurkat, 24 h; read-out: EC50.
Assay type: functional

SMILES	EC50 [µM]
CCOc1ccc(-c2ccc(NCc3ccccc3O)cc2)cc1F	2.53
Oc1ccccc1CNc1ccc(-c2ccc(F)cc2)cc1	3.86
Oc1ccccc1CNc1ccc(-c2ccccc2)cc1F	5.35
Oc1ccccc1CNc1ccc(-c2ccccc2F)cc1	2.15
Oc1ccccc1CNc1ccc(-c2cccc(F)c2)cc1	2.02
Oc1ccccc1CNc1ccc(-c2ccccc2)cc1	1.82
Oc1ccccc1CNc1ccc(-c2ccccc2)c(F)c1	2.85
Oc1ccccc1CNc1ccc(-c2ccc(Cl)cc2)cc1	2.39
CCSc1ccc(-c2ccc(NCc3ccccc3O)cc2)cc1	1.98
Cc1ccc(-c2ccc(NCc3ccccc3O)cc2)cc1	3.79
Cc1ccccc1-c1ccc(NCc2ccccc2O)cc1	5.22
Cc1cc(NCc2ccccc2O)ccc1-c1ccccc1	8.61
COc1ccc(-c2ccc(NCc3ccccc3O)cn2)cc1	4.76
Cc1cccc(-c2ccc(NCc3ccccc3O)cc2)c1	9.19
Oc1ccccc1CNc1ccc(C2CCCCC2)cc1	8.8
Oc1ccccc1CNc1ccc(-c2cccc(Cl)c2)cc1	6.2
CCSc1ccc(-c2ccc(NCc3ccccc3O)cn2)cc1	1.92
Oc1ccccc1CNc1ccc(-c2ccccc2)nc1	0.84
CCCc1ccc(-c2ccc(NCc3ccccc3O)cc2)cc1	2.39
CC(C)Oc1ccc(-c2ccc(NCc3ccccc3O)cc2)cc1	5.94
COc1ccc(-c2ccc(NCc3ccccc3O)cc2)cc1	0.58
CCOc1ccc(-c2ccc(NCc3ccccc3O)cc2)cc1	0.52
Oc1ccccc1CNc1ccc(-c2ccc(F)cc2)nc1	2.59

Same assay, conditions: jurkat

SMILES	EC50
Cc1ccc(-c2ccc(NCc3ccccc3O)cn2)cc1	Not Active
O=C(Nc1ccc(C2CCCCC2)cc1)c1ccccc1O	Not Active
Oc1cc(-c2ccccc2)ccc1CNc1ccc(C2CCCCC2)cc1	Not Active
Oc1ccccc1CNc1ccc(-c2ccc(C(F)(F)F)cc2)cc1	Not Active
Oc1ccccc1CNc1ccc(-c2ccc(N3CCOCC3)cc2)nc1	Not Active
CCOc1ccc(-c2ccc(NCc3ccccc3O)cn2)cc1	Not Active
Oc1ccc(-c2ccc(NCc3ccccc3O)cc2)cc1	Not Active
CC(=O)c1ccc(-c2ccc(NCc3ccccc3O)cc2)cc1	Not Active
CN(Cc1ccccc1O)c1ccc(C2CCCCC2)cc1	Not Active
CC(Nc1ccc(C2CCCCC2)cc1)c1ccccc1O (stereo not given)	Not Active
CCCOc1ccc(-c2ccc(NCc3ccccc3O)cc2)cc1	Not Active
Oc1ccccc1CNc1ccc(-c2ccc(-c3ccccc3)cc2)cc1	Not Active
CCOc1cccc(-c2ccc(NCc3ccccc3O)cc2)c1	Not Active
Oc1ccccc1CNc1ccc(N2CCNCC2)cc1	Not Active
Oc1ccccc1CNc1ccc(-c2cccc(OC(F)(F)F)c2)cc1	Not Active
Oc1ccccc1CNc1ccc(-c2cccc(OCc3ccccc3)c2)cc1	Not Active
Oc1ccccc1CNc1ccc(-c2ccc(OC(F)(F)F)cc2)cc1	Not Active
Oc1ccccc1CNc1nc(-c2ccccc2)cs1	Not Active
Oc1ccccc1CNc1ccc(-c2ccccc2)cn1	Not Active
Oc1ccccc1CNc1ccccc1	Not Active
N#Cc1ccccc1-c1ccc(NCc2ccccc2O)cc1	Not Active
Oc1ccccc1NCc1ccc(C2CCCCC2)cc1	Not Active
Cc1ccc(O)c(CNc2ccc(C3CCCCC3)cc2)c1	Not Active
Oc1ccccc1CNc1ccc(F)cc1	Not Active
Oc1ccccc1/C=N/c1ccc(C2CCCCC2)cc1	Not Active
Oc1ccccc1Nc1ccc(C2CCCCC2)cc1	Not Active

SMILES	EC50
COc1cccc(-c2ccc(NCc3ccccc3O)cc2)c1	Not Active
Oc1cc(C(F)(F)F)ccc1CNc1ccc(C2CCCCC2)cc1	Not Active
c1ccc(CNc2ccc(C3CCCCC3)cc2)cc1	Not Active
Oc1ccccc1CNc1ccc(N2CCCCC2)cc1	Not Active
Oc1ccccc1CCNc1ccc(C2CCCCC2)cc1	Not Active
COc1ccccc1CNc1ccc(C2CCCCC2)cc1	Not Active
CN1CCN(c2ccc(NCc3ccccc3O)cc2)CC1	Not Active
Oc1cc(F)ccc1CNc1ccc(C2CCCCC2)cc1	Not Active
Oc1ccccc1CNc1ccc(-c2ccc(Cl)cc2)nc1	Not Active
Cc1cc(-c2ccccc2)ccc1NCc1ccccc1O	Not Active
Oc1ccccc1CNc1ccc(-c2ccccc2Cl)cc1	Not Active
O=[N+]([O-])c1ccc(NCc2ccccc2O)cc1	Not Active
COc1ccccc1-c1ccc(NCc2ccccc2O)cc1	Not Active
Oc1cc(I)ccc1CNc1ccc(C2CCCCC2)cc1	Not Active
CC(C)(C)c1ccc(-c2ccc(NCc3ccccc3O)cc2)cc1	Not Active
Oc1ccccc1CNc1cc(-c2ccccc2)no1	Not Active
Oc1ccc(CNc2ccc(C3CCCCC3)cc2)cc1	Not Active
Oc1ccccc1CCc1ccc(C2CCCCC2)cc1	Not Active
Oc1ccccc1CNc1ccc(N2CCCC2)cc1	Not Active
N#Cc1ccc(-c2ccc(NCc3ccccc3O)cc2)cc1	Not Active
COc1ccc(CNc2ccc(C3CCCCC3)cc2)c(O)c1	Not Active
Oc1cccc(-c2ccc(NCc3ccccc3O)cc2)c1	Not Active
Cc1cccc(CNc2ccc(C3CCCCC3)cc2)c1O	Not Active
Cc1ccc(CNc2ccc(C3CCCCC3)cc2)c(O)c1	Not Active
COC(=O)c1ccc(-c2ccc(NCc3ccccc3O)cc2)cc1	Not Active

These molecules were tested on Jurkat (assay: Induction of necroptosis in human Jurkat T cells incubated for 24 hrs in presence of Nec-8 by ATP-based cell viability assay). Settings: not given.
Assay type: functional

SMILES	Activity
Oc1ccccc1CNc1ccc(C2CCCCC2)cc1	inactive

What follows are molecules tested on Jurkat (assay: Induction of necroptosis in human Jurkat T cells incubated for 24 hrs in presence of caspase inhibitor zVAD.fmk by ATP-based cell viability assay). Settings: not given.
Assay type: functional

SMILES	Activity
Oc1ccccc1CNc1ccc(C2CCCCC2)cc1	Active

The molecules below were run on Jurkat (assay: Induction of necroptosis in human Jurkat T cells incubated for 24 hrs in presence of RIPK1 inhibitor Nec-1 by ATP-based cell viability assay). Settings: not given.
Assay type: functional

SMILES	Activity
Oc1ccccc1CNc1ccc(C2CCCCC2)cc1	Active

These molecules were tested on Jurkat (Homo sapiens) (assay: Potency index, ratio of EC50 for E6 to EC50 for test compound for induction of necroptosis in human Jurkat T cells incubated for 24 hrs by ATP-based cell viability assay). Settings: not given.

SMILES	Ratio EC50
Oc1ccccc1CNc1ccc(-c2ccccc2)cc1	5
COc1ccc(-c2ccc(NCc3ccccc3O)cc2)cc1	17
CCOc1ccc(-c2ccc(NCc3ccccc3O)cc2)cc1	17
